Assay results reported in patent US10485785B2, “Method for producing fine powder and the fine powder produced by the same” (Moriroku Chemicals Company, Ltd., priority 2012, dated 2019).
Each block holds one molecule with its values, some of them ahead of it.

Experiments:
Assay type in all cases: physicochemical
[1] = dissolution test, pharmacopoeia second law (paddle method); details: 66.7 mg sample suspended in water with 0.1%(w/v) Tween80, 900 mL test liquid, 75 rpm
Experimental: In order to verify the degree of improvement of solubility of the concurrently pulverized materials, which was obtained by concurrently pulverizing the test compound (phenytoin) made by example 5 and the additive (Hypromellose-Acetate-Succinate (HPMCAS)), the dissolution test was carried out as follows. […] Then the suspension was put into a 900 mL test liquid (50 Mm phosphate buffer solution, pH6.8) and examined under the condition of 75 rpm in compliance with the pharmacopoeia second law (paddle method). A sample consisting of only a compound (phenytoin) to be pulverized was individually pulverized under the conditions shown in Example 5 to obtain a pulverized material, which was used to carry out the dissolution test as follows. A 66.7 mg sample of the pulverized material was suspended in the water, which contains a 0.1%(w/v) Tween80, to obtain a suspension. Then the suspension was put into the 900 mL test liquid and examined under the condition of 75 rpm in compliance with the pharmacopoeia second law (paddle method). […] Before the dissolution test of reference example 1 was carried out, the pulverized material prepared in reference example 1 was mixed with commercially available additives (lactose and L-HPC) in a vessel by hand. Then, the dissolution test was performed as for a mixture of the pulverized material and the additives.

[2] = particle size distribution by laser diffraction (dry and wet method)
Experimental: The pulverized particles were dispersed by compressed air (0.4 MPa) and then, the dry particle size distribution was measured by a laser diffraction apparatus for measuring particle size distribution (LMS-30, SEISHIN ENTERPRISE CO., LTD.). On the other hand, the pulverized particles were dispersed in purified water by ultrasonic dispersion (30 seconds) and then, the wet particle size distribution was measured by a laser diffraction apparatus for measuring particle size distribution (SALD-2100, SHIMADZU CORPORATION). (3) Crystalline Properties The crystalline states of the bulk powder and the pulverized particles were measured by a X-ray powder diffraction apparatus (RAD-2VC, Rigaku Corporation) and a differential scanning calorimeters (DSC-60, SHIMADZU CORPORATION). […] As stated above, the dry method particle size distribution was measured by the laser diffraction scattering method (Dry method), while the wet method particle size distribution was measured by the laser diffraction method (Wet method). FIG. 32 represents the particle distribution of the bulk powder of phenytoin (OriB), the particle distribution of the phenytoin (Jet) pulverized by the dry method jet mill, and the particle distribution of the phenytoin (LN2) pulverized by the ultra low temperature medium grinding apparatus (LN2 bead mill) according to the present invention, wherein all the particle distributions were the results measured by the aforementioned dry method (Dry method). FIG. 33 represents the particle distribution of the bulk powder of phenytoin (OriB), the particle distribution of the phenytoin (Jet) pulverized by the dry method jet mill, and the particle distribution of the phenytoin (LN2) pulverized by the ultra low temperature medium grinding apparatus (LN2 bead mill) according to the present invention, wherein all the particle distribution were the results measured by the aforementioned wet method (Wet method). […]

[3] = crystalline properties by powder X-ray diffractometry and differential scanning calorimetry
Experimental: The pulverized particles were dispersed by compressed air (0.4 MPa) and then, the dry particle size distribution was measured by a laser diffraction apparatus for measuring particle size distribution (LMS-30, SEISHIN ENTERPRISE CO., LTD.). On the other hand, the pulverized particles were dispersed in purified water by ultrasonic dispersion (30 seconds) and then, the wet particle size distribution was measured by a laser diffraction apparatus for measuring particle size distribution (SALD-2100, SHIMADZU CORPORATION). (3) Crystalline Properties The crystalline states of the bulk powder and the pulverized particles were measured by a X-ray powder diffraction apparatus (RAD-2VC, Rigaku Corporation) and a differential scanning calorimeters (DSC-60, SHIMADZU CORPORATION). […] FIG. 34 represents the results of powder X-ray diffractometry (XRPD) of the original bulk of phenytoin (OriB), the phenytoin (Jet) pulverized by the dry method jet mill, and the phenytoin (LN2) pulverized by the ultra low temperature medium grinding apparatus (LN2 bead mill) according to the present invention, which were measured by a powder X-ray diffractometry device (RAD-2VC, Rigaku Corporation). […]

[4] = observation by scanning electron microscope (SEM); details: pulverized by the LN2 bead mill, SEM FIG. 2(B)
Text: The exterior appearance of pulverized particles on which platinum is deposited was observed by a scanning electron microscope (JSM-6060, JEOL LTD.).

solubility of the pulverized particles in dissolution test [1]: not improved, or rather became worse
particle diameter after individual pulverization ([2]; conditions of Example 5): ≤ 0.1 μm
Compound: O=C1NC(=O)C(c2ccccc2)(c2ccccc2)N1 [Reference example 1, phenytoin]

degree of crystallinity ([3]; from ΔH value versus original bulk, DSC): 81%
Compound: O=C1NC(=O)C(c2ccccc2)(c2ccccc2)N1 [phenytoin (Jet), phenytoin]

rate of submicron size particles relative to particles pulverized by the dry method [2]: three and a half times
percentage of the mass consisting of particles of 1 μm or below (rate of submicron size particles) ([2]; measured up to): up to 32%
crystalline transformation / crystalline descent ([3]; XRPD and DSC, before and after pulverization): crystalline descent was not found
Compound: O=C1NC(=O)C(c2ccccc2)(c2ccccc2)N1 [phenytoin (LN2), phenytoin]

dimension of the majority of the particles [4]: ≤ 1 μm
Compound: O=C1NC(=O)C(c2ccccc2)(c2ccccc2)N1 [phenytoin]
